Experimental data from PMC6680510, “Benzotriazine Di-Oxide Prodrugs for Exploiting Hypoxia and Low Extracellular pH in Tumors” (Molecules, 2019).
Values joined by “and” are separate entries in the source; they are usually repeats but may differ in a detail not shown here. Identical values can stand only once. Like-named read-outs stand apart in the source and are kept apart here.

Columns and labels:
SiHa cells = assay: IC50 assay modified for chronic hypoxia (oxia, hypoxia, anoxia); type: cell-based; details: for IC50: Homo sapiens
Experimental: There are relatively few viable cells in tumors at O2 concentrations as low as in the above anoxic experiments. In addition, extensive changes in gene expression occur under chronic exposure to intermediate O2 concentrations (chronic hypoxia), including the expression of proteins that regulate pHi. […] Therefore, oxic and anoxic exposures were also tested in these same experiments. The 24 h adaptation to hypoxia had little effect on the subsequent growth of the cultures at either pHe value (Figure S6).
To minimize problems with poor cell attachment under chronic hypoxia, the drugs were added from a 3-fold dilution series made in a separate plate, rather than by serial dilution in the plates containing the cells. In addition, the drugs were removed after the 4 h exposure by centrifuging the plates (200g × 5 min) prior to each aspiration. The same modifications were used for the oxic drug exposures in these experiments.

UT-SCC-74B cells = assay: IC50 assay (inhibition of proliferation, 4 h exposure, SRB); type: cell-based; details: UT-SCC-74B, UT-SCC-74B; for IC50: Homo sapiens, 4 h
Experimental: Cells were seeded in 96-well plates (SiHa or FaDu 1500 cells/well, UT-SCC-74B 800 cells/well) in 100 μL. After incubation for 2 h, the drugs were added in 50 μL of the same titrated medium at 3× the final concentration to duplicate the wells. After a further 4 h the plates were checked for drug precipitation using a phase contrast microscope, then drugs were removed by aspirating and washing with the standard (pH 7.4) medium, then aspirating again and adding 150 μL of the medium. Cultures were then grown for 5 days before staining with sulphorhodamine B and measuring absorbance, with the estimation of IC50 values using 4-parameter logistic regression, as previously carried out.
The medium and plasticware was equilibrated in the chamber for 3 days prior to use. In the anoxia experiments, FaDu cells were plated in poly-L-lysine coated plates (Corning Cat # 356461) to improve attachment. […]
Footnotes: a Number of experiments. b Anoxic cytotoxicity ratio = oxic IC50/anoxic IC50. c pH
cytotoxicity ratio = IC50 at pHe 7.4/ IC50 at pHe 6.5. d Overall ratio = oxic IC50 pHe 7.4 / anoxic IC50 pHe
6.5. Values are means and errors are SEM. For ratios, the errors are root mean square SEM. […]

Compound: O=C(O)CCc1n[n+]([O-])c2ccccc2[n+]1[O-] [Compound 4a, 3-(2-Carboxyethyl)benzo[e][1,2,4]triazine 1,4-Dioxide]
- PCR (IC50 for pHe 7.4/IC50 for pHe 6.5) (SiHa cells; 0.2% O2): 1.39 ± 0.19
- PCR (IC50 for pHe 7.4/IC50 for pHe 6.5) (SiHa cells; 20% O2): 1.98 ± 0.93
- PCR (IC50 for pHe 7.4/IC50 for pHe 6.5) (SiHa cells; <0.01% O2): 1.86 ± 0.59
- IC50 (SiHa cells; 0.2% O2 (24 h before and during 4 h exposure), pHe 6.5): 308 ± 1 µM
- IC50 (SiHa cells; 0.2% O2 (24 h before and during 4 h exposure), pHe 7.4): 428 ± 57 µM
- IC50 (SiHa cells; 4 h, 20% O2, pHe 6.5, 4 h): 707 ± 321 µM
- IC50 (SiHa cells; 4 h, 20% O2, pHe 7.4, 4 h): 1400 ± 162 µM
- IC50 (SiHa cells; 4 h, <0.01% O2, pHe 6.5, 4 h): 160 ± 45 µM
- IC50 (SiHa cells; 4 h, <0.01% O2, pHe 7.4, 4 h): 298 ± 44 µM
- ACR (IC50 for 20% O2/IC50 for <0.01% O2) (SiHa cells; pHe 6.5): 4.42 ± 2.36
- HCR (IC50 for 20% O2/IC50 for 0.2% O2) (SiHa cells; pHe 6.5): 2.30 ± 1.04
- ACR (IC50 for 20% O2/IC50 for <0.01% O2) (SiHa cells; pHe 7.4): 4.70 ± 0.88
- HCR (IC50 for 20% O2/IC50 for 0.2% O2) (SiHa cells; pHe 7.4): 3.28 ± 0.58
- IC50 (UT-SCC-74B cells; pHe 6.5, 4 h, 20% O2, read-out: Oxic IC50): 297 ± 74 µM
- IC50 (UT-SCC-74B cells; pHe 6.5, 4 h, <0.01% O2, read-out: Anoxic IC50): 97.6 ± 12.3 µM
- IC50 (UT-SCC-74B cells; pHe 7.4, 4 h, 20% O2, read-out: Oxic IC50): 863 ± 66 µM
- IC50 (UT-SCC-74B cells; pHe 7.4, 4 h, <0.01% O2, read-out: Anoxic IC50): 225 ± 26 µM
- TME ratio (oxic IC50 pHe 7.4/anoxic IC50 pHe 6.5) (UT-SCC-74B cells): 8.84 ± 1.30
- PCR Anoxic (IC50 at pHe 7.4/IC50 at pHe 6.5) (UT-SCC-74B cells; anoxic): 2.31 ± 0.39 and 2.9
- PCR oxic (IC50 at pHe 7.4/IC50 at pHe 6.5) (UT-SCC-74B cells; oxic): 2.91 ± 0.76 and 2.3
- ACR (oxic IC50/anoxic IC50) (UT-SCC-74B cells; pHe 6.5): 3.04 ± 0.85
- ACR (oxic IC50/anoxic IC50) (UT-SCC-74B cells; pHe 7.4): 3.84 ± 0.53
